Results from PubChem BioAssay AID732 (Emory University Molecular Libraries Screening Center, 2007).
Where “and” joins values, the source holds several entries; their conditions need not be identical. Identical values can stand only once. Calls of active or inactive are those of the source. How the calls were made is not given here.

Tested on: in vivo angiogenesis, blood vessel count
Assay: reduction of blood vessel formation in vivo – HTS, in vivo study (AID 732);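 further: zebrafish embryos dosed at one day post fertilization; 0% = reference inhibitor and 100% = plate mean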
Details: stronger effect = lower value;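 tested at 30 µM in the well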

Row | Structure (SMILES) | vessel count % control
1 | CC(N)=NCc1cccc(CN)c1 | 104% (inactive)
2 | COc1ccc(CCNC[C@@H](O)c2ccc(O)cc2)cc1OC | 105% (inactive)
3 | CC(N)(Cc1ccc(O)c(O)c1)C(=O)O (stereo unspecified) | 108% (inactive)
4 | CCn1ccnc1CC1COc2ccccc2O1 (stereo unspecified) | 100% (inactive)
5 | O=Nc1c(-c2c(O)[nH]c3ccc(F)cc23)[nH]c2ccccc12 | 48.1% (inactive)
6 | CNc1ccc2oc(C[C@H]3O[C@@]4(CC[C@H]3C)O[C@H]([C@H](C)C(=O)c3ccc[nH]3)[C@H](C)C[C@H]4C)nc2c1C(=O)O | 0% (inactive)
7 | O=c1[nH]c2ccccc2n1CCCN1CCN(C(c2ccccc2)c2ccccc2)CC1 | 120% (inactive)
8 | CCCNC(C)C(=O)Nc1ccccc1C (stereo unspecified) | 108% (inactive)
9 | O=c1[nH]c2ccccc2n1CCCN1CCC(n2c(=O)[nH]c3cc(Cl)ccc32)CC1 | 83.8% (inactive)
10 | COc1ccccc1N1CCN(CCCCNS(=O)(=O)c2cccc3c(N(C)C)cccc23)CC1 | 67.5% (inactive)
11 | O=c1[nH]c2cc(C(F)(F)F)ccc2n1-c1cc(C(F)(F)F)ccc1O | 91.2% (inactive)
12 | N[C@@H](CS(=O)O)C(=O)O | 111% (inactive)
13 | NCCNS(=O)(=O)c1cccc2cnccc12 | 98.2% (inactive)
14 | CC(C)(Sc1ccc(CCN(CCCCC2CCCCC2)C(=O)NC2CCCCC2)cc1)C(=O)O | 103% (inactive)
15 | Cn1c(=O)c2[nH]c(C3CCCC3)nc2n(C)c1=O | 104% (inactive)
16 | COC1=C(OC)C(=O)c2ccccc2C1=O | 115% (inactive)
17 | NCC(O)c1ccc(O)c(O)c1 (stereo unspecified) | 108% (inactive)
18 | c1cnc2c(c1)ccc1cccnc12 | 0% (inactive)
19 | NCCCCCC(=O)O | 116% (inactive)
20 | CCn1nc(C(=O)O)c(=O)c2cc3c(cc21)OCO3 | 102% (inactive)
21 | COc1ccc(CCN(C)CCc2ccc(OC)c(OC)c2)cc1OC | 101% (inactive)
22 | O=C(O)c1nn(Cc2ccc(Cl)cc2Cl)c2ccccc12 | 87.2% (inactive)
23 | O=C(c1ccc(OCCN2CCCCC2)cc1)c1c(-c2ccc(O)cc2)sc2cc(O)ccc12 | 87.4% (inactive)

Row | Structure (SMILES) | vessel count % control
24 | N[C@@H](CCC(=O)N[C@H](CSN=O)C(=O)NCC(=O)O)C(=O)O | 97.4% (inactive)
25 | NC(=S)NCCCC(N)C(=O)O (stereo unspecified) | 119% (inactive)
26 | NS(=O)(=O)c1cc2c(cc1Cl)NC=NS2(=O)=O | 135% (inactive)
27 | O=c1[nH]c2ccccc2c2ccccc12 | 103% (inactive)
28 | O=C1C(c2c(O)[nH]c3c(Cl)cc(Cl)cc23)=Nc2ccc(Br)cc21 | 123% (inactive)
29 | N#C/C(=C\c1ccc(O)c(O)c1)C(=O)NCCc1ccccc1 | 115% (inactive)
30 | OCC1NC[C@@H](O)C(O)[C@@H]1O (stereo partly specified) | 89.4% (inactive)
31 | CCC1(O)CC2CN(CCc3c([nH]c4ccccc34)[C@@](C(=O)OC)(c3cc4c(cc3OC)N(C=O)C3[C@]45CCN4CC=C[C@@](CC)([C@@H](OC(C)=O)[C@]3(O)C(=O)OC)[C@H]45)C2)C1 (stereo partly specified) | 109% (inactive)
32 | CC[C@@H](C)[C@H]1O[C@]2(CC[C@@H]1C)C[C@@H]1C[C@@H](C/C=C(\C)[C@@H](O[C@H]3C[C@H](OC)[C@@H](O[C@H]4C[C@H](OC)[C@@H](O)[C@H](C)O4)[C@H](C)O3)[C@@H](C)/C=C/C=C3\CO[C@@H]4[C@H](O)C(C)=C[C@@H](C(=O)O1)[C@]34O)O2 | 78.7% (inactive)
33 | COc1ccccc1N1CCN(CCN(C(=O)C2CCCCC2)c2ccccn2)CC1 | 87.8% (inactive)
34 | CC(C)C(=O)c1c(C(C)C)nn2ccccc12 | 94.7% (inactive)
35 | O=Nc1c(-c2c(O)[nH]c3ccccc23)[nH]c2ccccc12 | 15.6%
36 | c1ccc(C2CC2)c(OCC2=NCCN2)c1 | 104% (inactive)
37 | CCNC(=O)N1CCN(CCCC(c2ccc(F)cc2)c2ccc(F)cc2)CC1 | 83.9% (inactive)
38 | [N-]=[N+]=Nc1ccc(C(=O)CSC[C@H](NC(=O)CC[C@H](N)C(=O)O)C(=O)NCC(=O)O)cc1 | 91.6% (inactive)
39 | CCCOc1ccccc1-c1nc2n[nH]nc2c(=O)[nH]1 | 119% (inactive)
40 | COc1ccc2c(c1)c(CC(=O)N1CCOCC1)c(C)n2C(=O)c1ccc(Cl)cc1 | 55% (inactive)
41 | COc1ccc(CCN(C)CCCC(C#N)(c2ccc(OC)c(OC)c2)C(C)C)cc1OC (stereo unspecified) | 118% (inactive)
42 | CC1(C)C(=O)N(CCN2CCC(C(=O)c3ccc(F)cc3)CC2)c2ccccc21 | 118% (inactive)
43 | CC(C)NC[C@H](O)c1ccc(O)c(O)c1 | 98.1% (inactive) and 72.7% (inactive)
44 | C[N+](C)(C)CCO | 96.9% (inactive)
45 | CCCN1CCc2cc(O)cc3c2[C@H]1Cc1ccc(O)c(O)c1-3 | 114% (inactive)
46 | C[C@]12CCC(=O)C=C1CC[C@@H]1[C@@H]2[C@@H](O)C[C@@]2(C)[C@H]1CC[C@]2(O)C(=O)CO | 102% (inactive)

Row | Structure (SMILES) | vessel count % control
47 | CC(=O)[C@]1(O)Cc2c(O)c3c(c(O)c2[C@@H](O[C@H]2C[C@H](N)[C@H](O)[C@H](C)O2)C1)C(=O)c1ccccc1C3=O | 0% (inactive)
48 | COC(=O)[C@@H](N)CCCN=C(N)N[N+](=O)[O-] | 95% (inactive)
49 | CCN1CCC[C@H]1CNC(=O)c1c(O)c(Cl)cc(Cl)c1OC | 103% (inactive)
50 | O=S(=O)(c1cccc2c(I)cccc12)N1CCCNCC1 | 114% (inactive)
51 | O=c1[nH]cnc2[nH]ncc12 | 120% (inactive)
52 | COc1ccc2c(c[n+](C)c3c4cc5c(cc4ccc23)OCO5)c1OC | 124% (inactive)
53 | CC(=O)OCC1=C(C(=O)O)N2C(=O)[C@@H](NC(=O)Cc3cccs3)[C@H]2SC1 | 132% (inactive)
54 | NC(=S)c1ccc[n+]([C@@H]2O[C@@H](COP(=O)([O-])OP(=O)(O)OC[C@H]3O[C@@H](n4cnc5c(N)ncnc54)C(OP(=O)(O)O)[C@H]3O)C(O)C2O)c1 (stereo partly specified) | 101% (inactive)
55 | Cc1nc(N=Nc2cc(S(=O)(=O)O)c3cc([N+](=O)[O-])cc(S(=O)(=O)O)c3c2)c(COP(=O)(O)O)c(C=O)c1O | 93.5% (inactive)
56 | COCCOC(=O)C1=C(C)NC(C)=C(C(=O)OC(C)C)C1c1cccc([N+](=O)[O-])c1 (stereo unspecified) | 95.6% (inactive)
57 | Cc1cc(C(C)(C)C)c(O)c(C)c1CC1=NCCN1 | 106% (inactive)
58 | C[C@]12CCC(=O)C=C1CC[C@@H]1[C@@H]2CC[C@]2(C)C(=O)CC[C@@H]12 | 102% (inactive)
59 | Cc1[nH]c2ccc(O)cc2c1CCN | 87% (inactive)
60 | C/C=C/CC(C)C(O)C1C(=O)NC(CC)C(=O)N(C)CC(=O)N(C)C(CC(C)C)C(=O)NC(C(C)C)C(=O)N(C)C(CC(C)C)C(=O)NC(C)C(=O)NC(C)C(=O)N(C)C(CC(C)C)C(=O)N(C)C(CC(C)C)C(=O)N(C)C(C(C)C)C(=O)N1C (stereo unspecified) | 108% (inactive)
61 | CC(C)[C@@]1(NC(=O)[C@@H]2C=C3c4cccc5[nH]cc(c45)C[C@H]3N(C)C2)O[C@@]2(O)[C@@H]3CCCN3C(=O)[C@H](Cc3ccccc3)N2C1=O | 94% (inactive)
62 | N=C(N)SCCc1cnc[nH]1 | 150% (inactive)
63 | CCCN(CCC)C1CCc2cccc(O)c2C1 (stereo unspecified) | 111% (inactive)
64 | C[C@H]1C2Cc3ccc(O)cc3C1(C)CCN2CC1CC1 (stereo partly specified) | 70.9% (inactive)
65 | CCCN(CC1CC1)c1nc(C)nc(Nc2c(Cl)cc(Cl)cc2Cl)c1Cl | 125% (inactive)
66 | C#CCN(C)CCCOc1ccc(Cl)cc1Cl | 100% (inactive)
67 | CC(C)NNC(=O)c1ccncc1 | 118% (inactive)
68 | CC1=C(/C=C/C(C)=C/C=C/C(C)=C/C(=O)O)C(C)(C)CCC1 | 70% (inactive)
69 | Clc1ccc(Cn2c(CN3CCCC3)nc3ccccc32)cc1 | 81.8% (inactive)

Row | Structure (SMILES) | vessel count % control
70 | CC(N)=NCCC[C@H](N)C(=O)O | 134% (inactive)
71 | Cc1ccccc1/C=C/C1=NCCN1 | 102% (inactive)
72 | Oc1ccc(C2CNCCc3c2cc(O)c(O)c3Cl)cc1 (stereo unspecified) | 117% (inactive)
73 | O=C(O)/C=C/c1cnc[nH]1 | 108% (inactive)
74 | Oc1ccc(-c2nc(-c3ccc(F)cc3)c(-c3ccncc3)[nH]2)cc1 | 97.9% (inactive)
75 | CC[N+](CC)(CC)CC | 112% (inactive)
76 | CN1CCC(=C2c3ccccc3CC(=O)c3sccc32)CC1 | 105% (inactive)
77 | NC(=O)c1ccc(OCC(O)CN2CC=C(c3ccc(F)cc3)CC2)cc1 (stereo unspecified) | 79.7% (inactive)
78 | CN(C)C(=O)Oc1cccc([N+](C)(C)C)c1 | 87.6% (inactive)
79 | C=CCn1c(=O)c2c(nc(-c3ccc(S(=O)(=O)O)cc3)n2C)n(C)c1=O | 92% (inactive)
80 | COC(=O)c1c(C)[nH]c(C)c1C(=O)c1ccccc1Cc1ccccc1 | 102% (inactive)
81 | c1ccc([C@H]2CN3CCSC3=N2)cc1 | 98.4% (inactive)
82 | CCCCN1CCC(n2c(=O)[nH]c3ccccc32)CC1 | 67.2% (inactive)
83 | CN(C)C(=O)Oc1ccc[n+](C)c1 | 110% (inactive)
84 | CC(C)NCC(O)COc1cccc2[nH]ccc12 (stereo unspecified) | 90.8% (inactive)
85 | CNC(=O)c1cc2c(cn1)[nH]c1ccccc12 | 101% (inactive)
86 | COC[C@H]1OC(=O)c2coc3c2[C@@]1(C)C1=C(C3=O)C2CCC(=O)[C@@]2(C)C[C@H]1OC(C)=O (stereo partly specified) | 0% (inactive)
87 | CC(C)(C(=O)O)c1ccc(C(O)CCCN2CCC(C(O)(c3ccccc3)c3ccccc3)CC2)cc1 (stereo unspecified) | 116% (inactive)
88 | CC(N)=NCCCC[C@@H](N)C(=O)O | 86.6% (inactive)
89 | C#C[C@]1(O)CC[C@H]2[C@@H]3CCC4=Cc5oncc5CC4(C)[C@H]3CCC21C (stereo partly specified) | 118% (inactive)
90 | NC1(C(=O)O)CC1 | 127% (inactive)
91 | CC(=O)N1CCN(c2ccc(OC[C@H]3CO[C@](Cn4ccnc4)(c4ccc(Cl)cc4Cl)O3)cc2)CC1 | 113% (inactive)
